Source: patent US20050037423A1, “Isotopycally coded affinity marker 2” (Bayer Healthcare AG, priority 2001, published 2005)

Test: Solubility in water
Assay type: physicochemical

For O=C(CCN1C(=O)C=CC1=O)NCCCOCCOCCOCCCNC(=O)[C@H](Cc1c[nH]cn1)NC(=S)Nc1ccc(CNC(=O)CCCC[C@@H]2SC[C@@H]3NC(=O)N[C@@H]32)cc1 [Example 3], the solubility in water was “completely soluble”.
